The values below come from patent publication US20160158317A1, “Antimicrobial Peptide Variants and Polynucleotides Encoding Same” (Adenium Biotech A/S, priority 2010, published 2016).

Where a SMILES comes first, the peptide text is derived from it. Bridges are numbered along the chain shown (N, C = ends).

The nature of the data set: Determination of the protein binding (90% serum, 30 kDa filter, HPLC). The data set is classed as in vitro ADME. The conditions noted are these: serum. On the procedure: Protein binding assays were performed as follows. The purified peptides were mixed with 90% serum and centrifuged through a 30 kDa filter. The ultra-filtrate and the non filtrated serum samples were quantified by HPLC measurements and the protein binding was subsequently calculated.
As to `CC(C)[C@@H]1NC(=O)CNC(=O)[C@H](CC(N)=O)NC(=O)[C@H](CCCNC(=N)N)NC(=O)[C@H](Cc2ccc(O)cc2)NC(=O)[C@H](C(C)C)NC(=O)[C@@H]2CSSC[C@H](NC(=O)[C@H]([C@@H](C)O)NC(=O)[C@H](CCCNC(=N)N)NC1=O)C(=O)N[C@@H](Cc1ccc(O)cc1)C(=O)N[C@@H](CCCNC(=N)N)C(=O)N[C@@H](CCCNC(=N)N)C(=O)N[C@H](C(=O)N[C@@H](CC(N)=O)C(=O)O)CSSC[C@H](NC(=O)[C@H](Cc1ccccc1)NC(=O)CN)C(=O)N[C@@H](Cc1c[nH]c3ccccc13)C(=O)N[C@@H](Cc1ccc(O)cc1)C(=O)N[C@@H](C(C)C)C(=O)N2` [compound 45] (H-GFCWYVCVYRNGVRTCYRRCN-OH; disulfide 3-20, 7-16), the fraction unbound – broadly, free concentration divided by total concentration – was 0.02.

The compound `CC(C)C[C@@H]1NC(=O)[C@H](CC(N)=O)NC(=O)[C@H](Cc2c[nH]c3ccccc23)NC(=O)[C@@H](NC(=O)[C@H](Cc2ccccc2)NC(=O)CN)CSSC[C@@H](C(=O)N[C@@H](CC(N)=O)C(=O)O)NC(=O)[C@H](CCCNC(=N)N)NC(=O)[C@H](CCCNC(=N)N)NC(=O)[C@H](Cc2c[nH]cn2)NC(=O)[C@@H]2CSSC[C@H](NC1=O)C(=O)N[C@@H](C(C)C)C(=O)N[C@@H](Cc1ccc(O)cc1)C(=O)N[C@@H](CCCNC(=N)N)C(=O)N[C@@H](CC(N)=O)C(=O)NCC(=O)N[C@@H](C(C)C)C(=O)N[C@@H](CCCNC(=N)N)C(=O)N[C@@H](C(C)C)C(=O)N2` [compound 263] (H-GFCWNLCVYRNGVRVCHRRCN-OH; disulfide 3-20, 7-16 (inferred); N-terminus and C-terminus assumed) gave a fraction unbound of 0.2.

Take `CC(C)[C@@H]1NC(=O)CNC(=O)[C@H](CC(N)=O)NC(=O)[C@H](CCCNC(=N)N)NC(=O)[C@H](CCCCN)NC(=O)[C@H](C)NC(=O)[C@@H]2CSSC[C@H](NC(=O)[C@H](C(C)C)NC(=O)[C@H](CCCNC(=N)N)NC1=O)C(=O)N[C@@H](Cc1ccc(O)cc1)C(=O)N[C@@H](CCCNC(=N)N)C(=O)N[C@@H](CCCNC(=N)N)C(=O)N[C@H](C(=O)N[C@@H](CC(N)=O)C(=O)O)CSSC[C@H](NC(=O)[C@H](Cc1ccccc1)NC(=O)CN)C(=O)N[C@@H](C)C(=O)N[C@@H](CCCNC(=N)N)C(=O)N[C@@H](C(C)C)C(=O)N2` [compound 363] (H-GFCARVCAKRNGVRVCYRRCN-OH; disulfide 3-20, 7-16 (inferred); N-terminus and C-terminus assumed): the fraction unbound was 0.2.

`CC(C)[C@@H]1NC(=O)CNC(=O)[C@H](CC(N)=O)NC(=O)[C@H](CCCNC(=N)N)NC(=O)[C@H](Cc2ccc(O)cc2)NC(=O)[C@H](C(C)C)NC(=O)[C@@H]2CSSC[C@H](NC(=O)[C@H](CO)NC(=O)[C@H](CCCNC(=N)N)NC1=O)C(=O)N[C@@H](Cc1c[nH]cn1)C(=O)N[C@@H](CCCNC(=N)N)C(=O)N[C@@H](CCCNC(=N)N)C(=O)N[C@H](C(=O)N[C@@H](CC(N)=O)C(=O)O)CSSC[C@H](NC(=O)[C@H](Cc1ccccc1)NC(=O)CN)C(=O)N[C@@H](Cc1c[nH]c3ccccc13)C(=O)N[C@@H](CCCNC(=N)N)C(=O)N[C@@H](C(C)C)C(=O)N2` [compound 316] (H-GFCWRVCVYRNGVRSCHRRCN-OH; disulfide 3-20, 7-16 (inferred); N-terminus and C-terminus assumed) gave a fraction unbound of 0.1.

`CC(C)[C@@H]1NC(=O)CNC(=O)[C@H](CC(N)=O)NC(=O)[C@H](CCCNC(=N)N)NC(=O)[C@H](Cc2ccc(O)cc2)NC(=O)[C@H](C(C)C)NC(=O)[C@@H]2CSSC[C@H](NC(=O)[C@H](CCC(N)=O)NC(=O)[C@H](CCCNC(=N)N)NC1=O)C(=O)N[C@@H](Cc1ccc(O)cc1)C(=O)N[C@@H](CCCNC(=N)N)C(=O)N[C@@H](CCCNC(=N)N)C(=O)N[C@H](C(=O)N[C@@H](CC(N)=O)C(=O)O)CSSC[C@H](NC(=O)[C@H](Cc1ccccc1)NC(=O)CN)C(=O)N[C@@H](Cc1c[nH]c3ccccc13)C(=O)N[C@@H](Cc1ccc(O)cc1)C(=O)N[C@@H](C(C)C)C(=O)N2` [compound 42] (H-GFCWYVCVYRNGVRQCYRRCN-OH; disulfide 3-20, 7-16 (inferred); N-terminus and C-terminus assumed): the fraction unbound was 0.04.

`CC[C@H](C)[C@@H]1NC(=O)[C@H](CC(N)=O)NC(=O)[C@H](Cc2c[nH]c3ccccc23)NC(=O)[C@@H](NC(=O)[C@H](Cc2ccccc2)NC(=O)CN)CSSC[C@@H](C(=O)N[C@@H](CC(N)=O)C(=O)O)NC(=O)[C@H](CCCNC(=N)N)NC(=O)[C@H](CCCNC(=N)N)NC(=O)[C@H](Cc2c[nH]cn2)NC(=O)[C@@H]2CSSC[C@H](NC1=O)C(=O)N[C@@H](C(C)C)C(=O)N[C@@H](Cc1ccc(O)cc1)C(=O)N[C@@H](CCCNC(=N)N)C(=O)N[C@@H](CC(N)=O)C(=O)NCC(=O)N[C@@H](C(C)C)C(=O)N[C@@H](CCCNC(=N)N)C(=O)N[C@@H](C(C)C)C(=O)N2` [compound 262] (H-GFCWNICVYRNGVRVCHRRCN-OH; disulfide 3-20, 7-16 (inferred); N-terminus and C-terminus assumed): the fraction unbound is 0.12.

Compound `CC(C)[C@@H]1NC(=O)[C@@H]2CSSC[C@H](NC(=O)[C@H](C(C)C)NC(=O)[C@H](CCCNC(=N)N)NC(=O)[C@H](C(C)C)NC(=O)[C@H](CCCNC(=N)N)NC(=O)[C@H](CC(N)=O)NC(=O)[C@H](CCCNC(=N)N)NC(=O)[C@H](Cc3ccc(O)cc3)NC1=O)C(=O)N[C@@H](Cc1c[nH]cn1)C(=O)N[C@@H](CCCNC(=N)N)C(=O)N[C@@H](CCCNC(=N)N)C(=O)N[C@H](C(=O)N[C@@H](CC(N)=O)C(=O)O)CSSC[C@H](NC(=O)[C@H](Cc1ccccc1)NC(=O)CN)C(=O)N[C@@H](Cc1c[nH]c3ccccc13)C(=O)N[C@@H](CC(N)=O)C(=O)N[C@@H](C(C)C)C(=O)N2` [compound 228] (H-GFCWNVCVYRNRVRVCHRRCN-OH; disulfide 3-20, 7-16 (inferred); N-terminus and C-terminus assumed) showed a fraction unbound of 0.14.

Take `CC(C)[C@@H]1NC(=O)CNC(=O)[C@H](CC(N)=O)NC(=O)[C@H](CCCNC(=N)N)NC(=O)[C@H](CCCCN)NC(=O)[C@H](C(C)C)NC(=O)[C@@H]2CSSC[C@H](NC(=O)[C@H](C(C)C)NC(=O)[C@H](CCCNC(=N)N)NC1=O)C(=O)N[C@@H](Cc1ccc(O)cc1)C(=O)N[C@@H](CCCNC(=N)N)C(=O)N[C@@H](CCCNC(=N)N)C(=O)N[C@H](C(=O)N[C@@H](CC(N)=O)C(=O)O)CSSC[C@H](NC(=O)[C@H](Cc1ccccc1)NC(=O)CN)C(=O)N[C@@H](C)C(=O)N[C@@H](CCCNC(=N)N)C(=O)N[C@@H](C(C)C)C(=O)N2` [compound 125] (H-GFCARVCVKRNGVRVCYRRCN-OH; disulfide 3-20, 7-16 (inferred); N-terminus and C-terminus assumed): the fraction unbound was 0.1.

With `CC(C)[C@@H]1NC(=O)CNC(=O)[C@H](CC(N)=O)NC(=O)[C@H](CCCNC(=N)N)NC(=O)[C@H](Cc2ccc(O)cc2)NC(=O)[C@H](Cc2c[nH]cn2)NC(=O)[C@@H]2CSSC[C@H](NC(=O)[C@H](C(C)C)NC(=O)[C@H](CCCNC(=N)N)NC1=O)C(=O)N[C@@H](Cc1ccc(O)cc1)C(=O)N[C@@H](CCCNC(=N)N)C(=O)N[C@@H](CCCNC(=N)N)C(=O)N[C@H](C(=O)N[C@@H](CC(N)=O)C(=O)O)CSSC[C@H](NC(=O)[C@H](Cc1ccccc1)NC(=O)CN)C(=O)N[C@@H](Cc1c[nH]c3ccccc13)C(=O)N[C@@H](CCCNC(=N)N)C(=O)N[C@@H](C(C)C)C(=O)N2` [compound 74] (H-GFCWRVCHYRNGVRVCYRRCN-OH; disulfide 3-20, 7-16 (inferred); N-terminus and C-terminus assumed), the fraction unbound came out at 0.01.
